{"source": "paper PMC9532755", "about": "“Impact of lactisole on the time-intensity profile of selected sweeteners in dependence of the binding site” (Food Chemistry: X, 2022)", "test_system": "perceived sweet intensity (panelists)", "assay": "Sensory time-intensity (TI) measurement of sweetness by a trained panel", "assay_type": "in vivo, human", "details": "for Emax of max. intensity (sensory): scale 0-100, top < 100; for sweetener concentration up to which lactisole effectively inhibited the sweetness: time-intensity curves; for EC50: Homo sapiens, asymmetric five parameter curve fit, read-out: EC50 of max. intensity (sensory); for lingering: time point at which < 50 % of maximum sweetness was reached / onset (time of first maximum intensity): at sweet intensity saturation level: 50 mM cyclamate, 0.5 mM NHDC, 5.0 mM acesulfame K, 5.0 mM aspartame, without lactisole; for mode of inhibition by lactisole (shift of dose-response curve), sensory experiments: combination with 0.46 and 0.92 mM lactisole", "excerpt": "All panelists gave their written informed consent for participating in the panel and had to complete a sensory training. […] On a last training day, the evaluation on unstructured scales and the time-dependent evaluation on the computer were trained. All panelists reported to be in good general health condition, and not being under medication or pregnant. At least one hour before every training or tasting, panelists were instructed not to smoke and not to consume intense tasting food or beverage (e.g. coffee, chili, garlic, chewing gum) and to avoid in general strong hunger or fullness as well as strong odors or perfume on test days.\nEvery test solution was assessed randomly at two different test days with at least 8 panelists participating per replicate. The panelists were free to choose to participate at the different test days. A maximum of five test compounds were assessed in one session. All samples were coded with three-digit random code and presented to the panelists in randomized order. On each test day, panelists were presented five sweet solutions with 0, 25, 50, 100 and 200 g/L sucrose as a scale training for the ratings from “not at all” to “very intensive” sweetness. […] The three minutes of evaluation were chosen to capture as much of the lingering as possible without wearing out the panelists during the evaluation. A total of 350 measuring time points was recorded within the pre-set time frame, especially to see differences in the first seconds of evaluation, which are important for the onset. The panelists were asked to take the sample (20 mL) into their mouth, while starting the timer and simultaneously the evaluation of sweet intensity over the time, and to spit out the sample after ten seconds while continuing the evaluation of the sweetness intensity until the end of the three minutes.\nFor comparison of the time-dependent properties, the following descriptors were used: the maximum intensity at the first 30 sec of evaluation as “max. intensity”, the time-point of the first maximum intensity as “onset” in sec, […], and the area under the curve from the time-intensity plots as “AUC” as a marker for the overall intensity and duration.\nAll sensory experiments were conducted at the Christian Doppler Laboratory for Taste Research at the Institute for Physiological Chemistry, University of Vienna, Austria, at room temperature (21 – 23 °C). • Calcium mobilization assay\nThe statistical analysis and graphical representation were performed with GraphPad Prism 9.0 for sensory results and with SigmaPlot 14.0 for cell experiments. To evaluate the sensory dose–response effects of ascending sweetener concentration w/o lactisole, an asymmetrical five-parameter curve (Richard́s five-parameter dose–response curve) was fitted. The data are presented as means ± SEM from at least 16 single evaluations. Statistical significance between the different test compounds and concentration-dependent effects was assessed by two-way ANOVAs with Tukey post hoc test using Graph Pad Prism. The normal distribution of the data sets was checked by evaluation of the kurtosis (between −7 to + 7) and the skewness (between −3 to + 3). Equal variance was tested using Levenés test. In case the assumptions of a normal distribution and equal variance were not met, the non-parametric ANOVA on ranks (Kruskal-Wallis Test) with Dunn's post-hoc test without the calculation of interaction was applied. A Pearson product moment correlation was conducted to investigate relationships between sensory results and cell responses of the tested sweeteners.", "note": "Peptide text beside a SMILES is read from it."}
{"compound": "COc1ccc(CCC(=O)c2c(O)cc(O[C@@H]3O[C@H](CO)[C@@H](O)[C@H](O)[C@H]3O[C@@H]3O[C@@H](C)[C@H](O)[C@@H](O)[C@H]3O)cc2O)cc1O", "note": "[NHDC, neohesperidin dihydrochalcone]", "values": [{"measurement": "Hillslope of max. intensity dose-response (sensory)", "setting": "0 mM lactisole", "value": 0.94}, {"measurement": "Emax of max. intensity (sensory)", "setting": "0 mM lactisole", "value": 97.73}, {"measurement": "sweetener concentration up to which lactisole effectively inhibited the sweetness", "setting": "0.46 mM lactisole", "value": "up to 0.2 mM"}, {"measurement": "sweetener concentration up to which lactisole effectively inhibited the sweetness", "setting": "0.92 mM lactisole", "value": "up to 0.5 mM"}, {"measurement": "EC50", "setting": "0 mM lactisole", "value": 56, "unit": "µM"}, {"measurement": "lingering: time point at which < 50 % of maximum sweetness was reached", "value": 100.7, "unit": "s"}, {"measurement": "onset (time of first maximum intensity)", "value": 5.1, "unit": "s"}, {"measurement": "mode of inhibition by lactisole (shift of dose-response curve), sensory experiments", "value": "competitive inhibition"}, {"measurement": "Hillslope of max. intensity dose-response (sensory)", "setting": "with 0.46 mM lactisole", "value": 0.89}, {"measurement": "Emax of max. intensity (sensory)", "setting": "with 0.46 mM lactisole", "value": 100.00}, {"measurement": "Hillslope of max. intensity dose-response (sensory)", "setting": "with 0.92 mM lactisole", "value": 0.82}, {"measurement": "Emax of max. intensity (sensory)", "setting": "with 0.92 mM lactisole", "value": 100.00}]}
{"compound": "CC1=CC(=O)NS(=O)(=O)O1", "note": "[acesulfame K]", "values": [{"measurement": "Hillslope of max. intensity dose-response (sensory)", "setting": "0 mM lactisole", "value": 1.43}, {"measurement": "Emax of max. intensity (sensory)", "setting": "0 mM lactisole", "value": "unstable"}, {"measurement": "sweetener concentration up to which lactisole effectively inhibited the sweetness", "setting": "0.46 mM lactisole", "value": "up to 1 mM"}, {"measurement": "sweetener concentration up to which lactisole effectively inhibited the sweetness", "setting": "0.92 mM lactisole", "value": "up to 1 mM"}, {"measurement": "EC50", "setting": "0 mM lactisole", "value": 920, "unit": "µM"}, {"measurement": "lingering: time point at which < 50 % of maximum sweetness was reached", "value": 44.7, "unit": "s"}, {"measurement": "onset (time of first maximum intensity)", "value": 4.6, "unit": "s"}, {"measurement": "Hillslope of max. intensity dose-response (sensory)", "setting": "with 0.46 mM lactisole", "value": 2.75}, {"measurement": "Emax of max. intensity (sensory)", "setting": "with 0.46 mM lactisole", "value": 71.83}, {"measurement": "Hillslope of max. intensity dose-response (sensory)", "setting": "with 0.92 mM lactisole", "value": 1.45}, {"measurement": "Emax of max. intensity (sensory)", "setting": "with 0.92 mM lactisole", "value": 73.60}]}
{"compound": "COC(=O)[C@H](Cc1ccccc1)NC(=O)[C@@H](N)CC(=O)O", "note": "[aspartame] (H-Asp-Phe-OMe)", "values": [{"measurement": "Hillslope of max. intensity dose-response (sensory)", "setting": "0 mM lactisole", "value": 2.56}, {"measurement": "Emax of max. intensity (sensory)", "setting": "0 mM lactisole", "value": 97.05}, {"measurement": "sweetener concentration up to which lactisole effectively inhibited the sweetness", "setting": "0.46 mM lactisole", "value": "≤ 1.0", "unit": "mM"}, {"measurement": "sweetener concentration up to which lactisole effectively inhibited the sweetness", "setting": "0.92 mM lactisole", "value": "up to 2.0 mM"}, {"measurement": "EC50", "setting": "0 mM lactisole", "value": 1090, "unit": "µM"}, {"measurement": "lingering: time point at which < 50 % of maximum sweetness was reached", "value": 71.4, "unit": "s"}, {"measurement": "onset (time of first maximum intensity)", "value": 5.7, "unit": "s"}, {"measurement": "Hillslope of max. intensity dose-response (sensory)", "setting": "with 0.46 mM lactisole", "value": 1.28}, {"measurement": "Emax of max. intensity (sensory)", "setting": "with 0.46 mM lactisole", "value": 99.22}, {"measurement": "Hillslope of max. intensity dose-response (sensory)", "setting": "with 0.92 mM lactisole", "value": 1.32}, {"measurement": "Emax of max. intensity (sensory)", "setting": "with 0.92 mM lactisole", "value": 100.00}]}
{"compound": "O=S(=O)(O)NC1CCCCC1", "note": "[cyclamate]", "values": [{"measurement": "Hillslope of max. intensity dose-response (sensory)", "setting": "0 mM lactisole", "value": 2.60}, {"measurement": "Emax of max. intensity (sensory)", "setting": "0 mM lactisole", "value": 96.11}, {"measurement": "sweetener concentration up to which lactisole effectively inhibited the sweetness", "setting": "0.46 mM lactisole", "value": "up to 5.0 mM"}, {"measurement": "sweetener concentration up to which lactisole effectively inhibited the sweetness", "setting": "0.92 mM lactisole", "value": "≤ 10.0", "unit": "mM"}, {"measurement": "EC50", "setting": "0 mM lactisole", "value": 8720, "unit": "µM"}, {"measurement": "lingering: time point at which < 50 % of maximum sweetness was reached", "value": 60.1, "unit": "s"}, {"measurement": "onset (time of first maximum intensity)", "value": 5.1, "unit": "s"}, {"measurement": "mode of inhibition by lactisole (shift of dose-response curve), sensory experiments", "value": "competitive inhibition"}, {"measurement": "Hillslope of max. intensity dose-response (sensory)", "setting": "with 0.46 mM lactisole", "value": 2.18}, {"measurement": "Emax of max. intensity (sensory)", "setting": "with 0.46 mM lactisole", "value": 92.37}, {"measurement": "Hillslope of max. intensity dose-response (sensory)", "setting": "with 0.92 mM lactisole", "value": 2.10}, {"measurement": "Emax of max. intensity (sensory)", "setting": "with 0.92 mM lactisole", "value": "unstable"}]}
